Targets include Cytochrome P450 3A4 (Homo sapiens, UniProt P08684); Cytochrome P450 2C9 (Homo sapiens, UniProt P11712); Cytochrome P450 2D6 (Homo sapiens, UniProt P10635).
Experiment [1] concerns the target T1, Rac GTPase-activating protein 1 (Homo sapiens, UniProt Q9H0H5).
T1 sequence (Q9H0H5 whole entry): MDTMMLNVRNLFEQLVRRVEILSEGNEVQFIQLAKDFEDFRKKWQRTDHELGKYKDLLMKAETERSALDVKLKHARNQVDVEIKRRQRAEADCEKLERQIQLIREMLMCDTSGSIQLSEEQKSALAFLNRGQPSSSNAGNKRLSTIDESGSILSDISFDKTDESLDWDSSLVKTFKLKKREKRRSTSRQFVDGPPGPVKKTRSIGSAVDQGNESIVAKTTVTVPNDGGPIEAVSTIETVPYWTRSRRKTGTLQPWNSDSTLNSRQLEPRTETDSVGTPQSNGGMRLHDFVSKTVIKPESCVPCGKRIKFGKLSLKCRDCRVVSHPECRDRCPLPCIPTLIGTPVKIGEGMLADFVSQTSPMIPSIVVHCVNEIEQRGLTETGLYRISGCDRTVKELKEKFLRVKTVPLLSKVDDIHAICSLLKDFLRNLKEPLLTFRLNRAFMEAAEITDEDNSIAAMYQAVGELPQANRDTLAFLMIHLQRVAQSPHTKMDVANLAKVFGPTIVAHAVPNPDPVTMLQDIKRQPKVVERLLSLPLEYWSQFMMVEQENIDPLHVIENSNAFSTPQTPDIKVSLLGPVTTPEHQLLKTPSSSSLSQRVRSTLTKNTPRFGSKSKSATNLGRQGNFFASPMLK
Kind of experiment: blockers of MgcRacGAP-driven Rac1 GTP hydrolysis – biochemical, ADP Hunter fluorescence, primary and confirmatory, confirmation (AID 624330). Type of experiment: functional.

Experiment [2] deals with T2, Heat shock factor protein 1 (Mus musculus, UniProt P38532).
T2 sequence (P38532 whole entry): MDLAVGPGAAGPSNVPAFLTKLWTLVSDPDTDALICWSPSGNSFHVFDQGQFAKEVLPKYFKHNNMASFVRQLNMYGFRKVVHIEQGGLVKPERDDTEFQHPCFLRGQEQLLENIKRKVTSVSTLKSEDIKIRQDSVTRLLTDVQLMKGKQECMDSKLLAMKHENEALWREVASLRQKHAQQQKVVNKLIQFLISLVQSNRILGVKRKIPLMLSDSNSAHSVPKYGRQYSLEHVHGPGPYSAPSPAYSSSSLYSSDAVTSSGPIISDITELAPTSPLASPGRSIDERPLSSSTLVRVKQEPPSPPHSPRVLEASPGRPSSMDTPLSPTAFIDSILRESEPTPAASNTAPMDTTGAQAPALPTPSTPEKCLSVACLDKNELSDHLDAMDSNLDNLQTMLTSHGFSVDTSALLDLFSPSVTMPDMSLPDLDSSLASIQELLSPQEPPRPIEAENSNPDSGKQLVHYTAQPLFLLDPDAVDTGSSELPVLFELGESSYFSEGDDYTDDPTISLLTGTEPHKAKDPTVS
Nature of the experiment: decrease of HSF1-responsive luciferase luminescence – cell-based, NIH3T3, dose retest, confirmation (AID 2382).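 Note: NIH3T3 fibroblasts with HSF1-driven luciferase reporter stressed by proteasome inhibitor MG132; luminescence from HSF1-driven luciferase expression after 8 hours of MG132 stress.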 Type of experiment: functional.

Experiment [3] can be described thus: Luminescence Cell-Based Dose Retest to Confirm Inhibitors of Cancer Stem Cells. [Related pubchem assays (depositor defined):AID2717, AID2721]. The experiment is classed as functional. The conditions noted are these: Homo sapiens.
Experiment [4] relates to Streptococcus sp. 'group A'. Kind of experiment: Streptococcus pyogenes SK(-)GAS viability under kanamycin – luminescence, BacTiterGlo, confirmation, counter-screen for streptokinase expression inhibitor project, dose response (AID 1900). The experiment is classed as functional, organism-based.
A further experiment deals with T3, Streptokinase A (Streptococcus pyogenes serotype M1, UniProt P10520).
T3 sequence (P10520 whole entry): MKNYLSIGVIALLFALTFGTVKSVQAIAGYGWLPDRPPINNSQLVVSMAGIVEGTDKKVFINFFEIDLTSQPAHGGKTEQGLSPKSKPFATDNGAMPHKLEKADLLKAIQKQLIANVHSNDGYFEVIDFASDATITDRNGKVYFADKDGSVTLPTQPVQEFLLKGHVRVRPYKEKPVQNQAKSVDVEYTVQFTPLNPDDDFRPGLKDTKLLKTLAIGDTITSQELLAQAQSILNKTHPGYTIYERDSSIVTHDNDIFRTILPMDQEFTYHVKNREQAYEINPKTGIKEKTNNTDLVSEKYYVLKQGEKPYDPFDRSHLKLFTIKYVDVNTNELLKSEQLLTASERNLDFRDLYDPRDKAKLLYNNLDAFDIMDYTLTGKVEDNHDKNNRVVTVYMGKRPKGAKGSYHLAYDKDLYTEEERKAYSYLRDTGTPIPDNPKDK
Kind of experiment: viability-normalized secreted streptokinase activity reduction – plasminogen activation absorbance, OD405, dose response (AID 1914).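 Note: secreted streptokinase activity via plasminogen activation per viability signal from cell pellet.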 Type of experiment: functional, Streptococcus pyogenes M1 GAS.

The subject of another experiment is Streptococcus. Nature of the experiment: GAS UMAA2166 growth inhibition – luminescence, BacTiterGlo, counter-screen for streptokinase expression inhibitor project, dose response (AID 1915).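 Note: potency for reduction of bacterial viability or growth.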 Type of experiment: functional, organism-based. Background: The purpose of a counterscreen is to sort out artefacts and off-target activity.
Experiment [5] in a line: Trypanosoma cruzi growth suppression in host cells – NIH3T3 host cells, beta-gal luminescence, confirmation (AID 2044).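 Note: intracellular parasites grown in NIH/3T3 mouse fibroblasts as host cells; luminescent beta-galactosidase reporter signal from transgenic T. cruzi replicating inside host cells; inhibitors lower the luminescence signal.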 Type of experiment: functional, cell-based.
The nature of experiment [6]: NIH3T3 cell viability loss – ATP luminescence, mouse fibroblasts, counter-screen, dose response (AID 2010).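 Note: cells exposed to compound for about 90 hours before reading.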 Type of experiment: functional, cell-based.

As usually defined, the AC50 is the midpoint of the concentration-response curve, whichever way the signal moves. Broadly, the IC50 is the concentration at which inhibition is half-maximal. Broadly, the EC50 is the concentration that produces a half-maximal response.

The structures appear in SMILES notation. Where a name gives a salt, the structure may show the parent alone. Active and inactive are the calls of the source.

Chain of Cytochrome P450 3A4 (P08684 whole entry): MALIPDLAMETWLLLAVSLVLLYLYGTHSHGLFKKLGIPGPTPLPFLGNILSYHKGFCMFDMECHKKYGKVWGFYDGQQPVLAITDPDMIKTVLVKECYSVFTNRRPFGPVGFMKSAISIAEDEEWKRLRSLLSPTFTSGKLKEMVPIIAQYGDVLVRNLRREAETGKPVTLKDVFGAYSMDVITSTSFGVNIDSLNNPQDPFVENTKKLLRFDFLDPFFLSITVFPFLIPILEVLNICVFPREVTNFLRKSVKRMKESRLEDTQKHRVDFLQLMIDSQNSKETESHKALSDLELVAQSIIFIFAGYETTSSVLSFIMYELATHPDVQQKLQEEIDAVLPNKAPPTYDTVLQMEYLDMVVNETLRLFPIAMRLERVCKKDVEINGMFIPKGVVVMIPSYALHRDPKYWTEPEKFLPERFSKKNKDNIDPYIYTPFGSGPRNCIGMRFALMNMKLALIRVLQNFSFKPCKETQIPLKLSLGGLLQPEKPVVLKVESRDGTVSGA
Chain of Cytochrome P450 2D6 (P10635 whole entry): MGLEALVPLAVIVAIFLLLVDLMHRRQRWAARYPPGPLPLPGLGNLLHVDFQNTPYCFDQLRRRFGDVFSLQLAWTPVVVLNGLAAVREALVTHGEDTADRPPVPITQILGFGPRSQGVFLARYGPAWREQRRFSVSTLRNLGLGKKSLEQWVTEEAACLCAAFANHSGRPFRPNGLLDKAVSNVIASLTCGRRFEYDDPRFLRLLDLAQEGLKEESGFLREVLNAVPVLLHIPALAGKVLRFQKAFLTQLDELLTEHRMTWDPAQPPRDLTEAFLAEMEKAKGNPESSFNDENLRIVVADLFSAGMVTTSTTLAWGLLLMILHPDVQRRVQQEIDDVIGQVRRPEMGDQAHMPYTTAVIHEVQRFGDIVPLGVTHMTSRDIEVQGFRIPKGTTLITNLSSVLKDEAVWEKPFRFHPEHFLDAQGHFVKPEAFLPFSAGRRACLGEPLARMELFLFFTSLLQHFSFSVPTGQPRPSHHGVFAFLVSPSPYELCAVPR
Chain of Cytochrome P450 2C9 (P11712 whole entry): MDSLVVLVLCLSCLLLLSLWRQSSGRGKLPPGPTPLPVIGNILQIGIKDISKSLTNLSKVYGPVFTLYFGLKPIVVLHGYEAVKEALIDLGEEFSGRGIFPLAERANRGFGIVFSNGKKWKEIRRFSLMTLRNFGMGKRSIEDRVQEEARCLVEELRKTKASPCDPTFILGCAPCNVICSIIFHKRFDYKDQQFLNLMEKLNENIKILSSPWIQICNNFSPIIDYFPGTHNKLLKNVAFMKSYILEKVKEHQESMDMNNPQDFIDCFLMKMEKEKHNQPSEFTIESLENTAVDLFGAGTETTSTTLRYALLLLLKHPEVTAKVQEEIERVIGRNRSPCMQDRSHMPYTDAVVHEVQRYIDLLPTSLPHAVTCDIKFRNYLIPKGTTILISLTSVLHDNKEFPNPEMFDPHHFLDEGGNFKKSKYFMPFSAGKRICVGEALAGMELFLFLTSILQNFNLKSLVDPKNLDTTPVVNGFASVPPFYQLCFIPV

Consider `COc1cc(OC)nc(Oc2ccccc2C(=O)Oc2cccc(C)c2)n1`, for which, on Cytochrome P450 3A4, the AC50 was 17.8 µM (inconclusive).
For the molecule `O=c1cnc2cnc(N3CCOCC3)nc2n1Cc1ccc(F)cc1`, the values for the AC50 on Cytochrome P450 3A4 and on Cytochrome P450 2C9 were 12.6 µM (inconclusive) and 25.1 µM (inconclusive), respectively.
For the molecule `COc1ccc(CN2CCN(Cc3ccco3)CC2)cc1OC`, the IC50 in experiment [1] was 69.2 µM (active).
On to `CCO/C(C)=C1/SC(=S)NC1=O`, for which, in experiment [2], the EC50 is on record as > 195 µM (not active).
For `Oc1ccnc2cccc(Cc3ccccc3)c12`, the AC50 at Cytochrome P450 2D6 is 0.00708 µM (inconclusive); on Cytochrome P450 3A4, 28.2 µM (inconclusive); at Cytochrome P450 2C9, 15.8 µM (inconclusive).
Take `Cc1ccc(S(=O)(=O)NCc2ccccc2)cc1`: the AC50 at Cytochrome P450 3A4 was 31.6 µM (inconclusive).
Consider `CC(C)(C)[C@H]1C=C(C(=O)Nc2ccccc2)O[C@@H](OCCCCO)C1`, for which the EC50 in experiment [2] is 5.49 µM (active).
Take `CCOC(=O)n1c(=O)n(Cc2c(Cl)cccc2Cl)c2ccccc21`: at Cytochrome P450 3A4, the AC50 is 15.8 µM (inconclusive).
As for `Cc1ccn2c(Nc3ccc4c(c3)OCO4)c(-c3ccc(O)cc3)nc2c1`, the IC50 in [1] was 39.7 µM (active).
Consider `CSc1ccc2c(c1)C(N1CCN(C)CC1)Cc1ccccc1S2` (configuration not stated), for which the AC50 in experiment [3] is 11.1 µM (active).
With `COc1ccc(-n2c(S)nnc2-c2cnccn2)cc1`, the AC50 on Cytochrome P450 3A4 was 14.1 µM (inconclusive).
On to `Cc1[nH]c2ccccc2c1-c1csc(NC(=O)CSCCO)n1`, for which the IC50 in experiment [1] is 122 µM (active).
Take `Cc1ccc(-c2cc(C(=O)NCc3ccc4c(c3)OCO4)no2)cc1`: in experiment [3], the AC50 is > 195 µM (inactive).
In the case of `COc1cc(C)ccc1OCCCOc1ccccc1Br`, the EC50 (in [4]; on Streptokinase A; in the experiment on Streptococcus) was > 150 µM (not active) each time. Moreover, the AC50 at Cytochrome P450 2C9 was 39.8 µM (inconclusive).
For the molecule `O=C(c1cccnc1)N1CCN(Cc2cccc(Br)c2)CC1`, the IC50 in experiment [1] is 117 µM (active).
For the molecule `CS(=O)(=O)N1CCC2(CC1)CN(C(=O)Nc1cccc(C#N)c1)C2`, the AC50 at Cytochrome P450 3A4 is 0.0251 µM (inconclusive).
For `Cc1ccc(S(=O)(=O)N[C@H]2COC(=O)[C@@H](C)COC(=O)[C@H](C)NC(=O)C/C=C\[C@H]2C)cc1`, the AC50 on Cytochrome P450 3A4 was 3.98 µM (inconclusive).
With `CCN1CCc2c(OCc3ccccc3)cccc2C1=O`, the EC50 in experiment [2] was 37.3 µM (active).
Take `COc1ccc(OC(=O)C2CC(=O)N(c3ccc(C)cc3)C2)cc1` (configuration not stated): in experiment [1], the IC50 was 48.3 µM (active).
On to `CN(C)c1ncc2nc(-c3ccccc3)c(=O)n(C[C@H]3CCCO3)c2n1`, for which the AC50 on Cytochrome P450 2D6 is 12.6 µM (inconclusive); at Cytochrome P450 3A4 it was 12.6 µM (inconclusive); on Cytochrome P450 2C9 it was 20 µM (inconclusive).
For `Cn1cccc1-c1nc2ccccc2n1Cc1ccccc1`, in [3], the AC50 was 10.4 µM (active).
Turning to `Cc1nc2sc3c(NCc4ccco4)ncnc3c2c2c1COC(C)(C)C2`, the concentration for a half-maximal effect (EC50) in experiment [2] was > 195 µM (not active).
For `COc1ccc(C(=O)CSc2nnc(CN3CCCCC3)n2-c2ccc(Cl)cc2)cc1OC`, the AC50 in experiment [3] is 2.91 µM (active).
As to `c1ccc(N2CC[C@@]3(CCCNC3)C2)nc1`, the AC50 at Cytochrome P450 3A4 is 15.8 µM (inconclusive).
For `COc1cc(N2N=C(c3ccccc3)CC2c2ccccc2)c(C=O)cc1C=O` (configuration not stated), the EC50 in experiment [2] is listed as > 195 µM (not active).
Consider `Cc1c(N=Nc2ccc(O)cc2)c(=O)n(-c2ccccc2)n1C`, for which the IC50 in experiment [1] was 19.8 µM (active).
In the case of `COc1cccc(Nc2ncc3ncc(=O)n(C4CC4)c3n2)c1`, the AC50 was 6.31 µM (inconclusive) on Cytochrome P450 3A4 and 15.8 µM (inconclusive) on Cytochrome P450 2C9.
For the molecule `CC(C)(C)NC(=O)c1c(F)c(F)c(F)c(F)c1F`, in [2], the EC50 is > 195 µM (not active).
Turning to `COc1ncc2nc(C)c(=O)n(CCc3ccccc3)c2n1`, the AC50 at Cytochrome P450 3A4 is 15.8 µM (inconclusive); on Cytochrome P450 2C9, 20 µM (inconclusive).
As to `COc1cccc(O)c1CN1CCC(C(=O)Nc2ccc(-c3cccc(C)c3)cc2)CC1`, the AC50 in experiment [3] was 6.71 µM (active).
As to `CCOC(=O)c1c(NC(=O)CSc2nnc(-c3c[nH]c4ccccc34)n2C)sc2c1CCCC2`, the EC50 in experiment [2] was > 195 µM (not active).
As to `COc1cccc(N(C(=O)c2cccs2)c2nc3ccccc3s2)c1`, the EC50 in experiment [2] was > 195 µM (not active).
For `COc1ccccc1CN1CCC2(CC1)CCN(C(=O)c1csnn1)CC2`, the AC50 on Cytochrome P450 3A4 is 31.6 µM (inconclusive).
In the case of `COc1nc(-c2ccccc2)ccc1-c1noc(COc2ccccc2)n1`, in experiment [2], the EC50 is > 195 µM (not active).
On to `CC1(C)CC(=O)C(=NNc2ccc(OC(F)F)cc2)C(=O)C1`, for which, in [2], the EC50 is given as > 195 µM (not active).
As to `O=C(c1ccco1)N1CCC[C@@]2(CCN(Cc3ccncc3)C2)C1`, the AC50 on Cytochrome P450 3A4 is 15.8 µM (inconclusive).
With `Cc1cc(C)c(NC(=O)Nc2ccc3c(c2)OCO3)c(C)c1`, the EC50 in experiment [2] was > 195 µM (not active).
Take `Cc1ccccc1OCC(O)Cn1c2ccccc2c2ccccc21` (configuration not stated): the AC50 in experiment [3] was 5.66 µM (active).
Regarding `Cc1cc(C)cc(OCC(O)CN2CC(C)OC(C)C2)c1` (configuration not stated), the EC50 in experiment [2] is 32.9 µM (active).
As to `Clc1ccc(-c2nnc(-c3ccccc3)c(-c3ccccc3)n2)cc1`, in experiment [3], the AC50 was 10.1 µM (active).
Take `COc1ccc(NC2CCCN(C(=O)C3(C)CCCCC3)C2)cc1` (configuration not stated): in experiment [1], the IC50 was 80.7 µM (active).
In the case of `CCCCCCSc1ccc(-c2nc3cnccn3c2NCCCC)cc1`, in [3], the AC50 was 3.59 µM (active).
`O=C1C(O)=C(C(C2=C(O)C(=O)c3ccccc3C2=O)c2ccc(Cl)cc2)C(=O)c2ccccc21`: the AC50 on Cytochrome P450 2D6 is 2.51 µM (inconclusive); on Cytochrome P450 3A4, 3.16 µM (inconclusive); at Cytochrome P450 2C9 it was 3.16 µM (inconclusive).
For the molecule `O=C(CNC(=O)c1ccccc1Br)N/N=C/c1ccc(O)cc1`, the IC50 in experiment [1] is 58.7 µM (active).
`Oc1ccc(/C=N/N=C/c2ccc(O)cc2)cc1`: in experiment [1], the IC50 is 77.6 µM (active).
On to `Oc1cc(Br)ccc1/C=N/c1ccc(N2CCCCC2)cc1`, for which, in experiment [1], the IC50 was 5.88 µM (active).
Consider `Cc1ccc2nc(Cl)c3cc(C(=O)N(CCN(C)C)Cc4ccco4)sc3c2c1`, for which the concentration giving a half-maximal response (EC50) in experiment [5] was 0.123 µM (active); in [6], > 60 µM (not active). Further, in experiment [3], the AC50 is 1.86 µM (active).
On to `CC/C(=C(\c1ccccc1)c1ccc(OCCN(C)C)cc1)c1ccccc1` [TAMOXIFEN CITRATE], for which the AC50 in [3] was 4.53 µM (active).
